Patent publication US5436271A, “N^6 -(hydrazinoiminomethyl)lysine and method of inhibiting nitric oxide formation in body” (Cornell Research Foundation, Inc., priority 1993, dated 1995)
pIC50: −log10 of the molar value. Read-outs that look alike come from different tables or passages of the source.

Tests used:
nitric oxide synthase = experiment: Efficacy on arterial blood pressure in endotoxin-treated anesthetized dog (Example IV); type: in vivo
Protocol: To test the efficacy of N^6 -(hydrazinoiminomethyl)-L-lysine, a 28 kg fasted dog was anesthetized with pentobarbital (25 mg/kg, i.v.), orotracheally intubated to allow ventilation with a Harvard pump, and instrumented to allow arterial blood pressure to be monitored via a central catheter. After a constant normal blood pressure had been observed for about 90 min., a solution containing 2 mg/kg body weight of endotoxin (E. coli lipopolysaccharide obtained from Sigma Chemical Co.) was given as an intravenous bolus injection. […] When the mean arterial blood pressure had declined to about 70 mm Hg, a bolus intravenous injection of 20 mg/kg of N^6 -(hydrazinoiminomethyl)-L-lysine monohydrochloride (denote HAA) was given. […] At that time, the dog was given a bolus intravenous injection of 400 mg/kg of L-arginine (denoted L-ARG), the substrate of nitric oxide synthase and a specific antagonist of nitric oxide synthase inhibitors competing for the L-arginine binding site.

[1] = biological target: T1, cytokine-induced nitric oxide synthase isozyme (Mus musculus, UniProt P29477); experiment: Nitrite formation by cytokine-induced cultured mouse brain endothelial cells (Example V); type: cell-based
T1 construct: endogenous in cells; host or cells: cultured mouse brain endothelial cells induced with gamma-interferon and tumor necrosis factor
Protocol: In vitro studies with cultured endothelial cells were carried out to test the efficacy of N^6 -(hydrazinoiminomethyl)-L-lysine as an inhibitor of the cytokine-induced nitric oxide synthase isozyme relative to established inhibitors. Cultured mouse brain endothelial cells were grown for 18 hrs. in the presence of 1000 units/ml of gamma-interferon and 5000 units/ml of tumor necrosis factor, conditions shown previously to cause enzyme induction (R. Kilbourn and P. Belloni (1990) in "Nitric Oxide from L-Arginine: A Bioregulatory System" (S. Moncada and E. A. Higgs, eds.) pp. 61-67, Elsevier Science Publishers, Amsterdam). For control cells the culture media contained 50% Dulbecco's Modified Eagle's Medium, 45% Ham's F12 Medium with 5% fetal calf serum. […] Nitric oxide formation was monitored by following the increase in the concentration of nitrite in the culture medium. Nitric oxide spontaneously oxidizes to nitrite under the incubator conditions.

[2] = Toxicity in awake dog, i.v. bolus plus infusion (Example II); type: in vivo
Protocol: To test the toxicity of N^6 -(hydrazinoiminomethyl)-L-lysine, a 30 kg awake dog was administered the hydrochloride salt of the drug at a dose of 20 mg/kg body weight as a single intravenous (i.v.) bolus. […] After 30 min., an additional dose of 20 mg/kg was given and an i.v. infusion of drug at a rate of 10 mg/kg body weight per hour was started. The infusion was continued for 5 hours. […] The spasms ended within 24 hours (48 hours after the experiment started), and the dog appeared normal and well in all respects.

[3] = biological target: T2, constitutive isoform of nitric oxide synthase (Rattus norvegicus, UniProt Q62600); experiment: Inhibition of acetylcholine relaxation of phenylephrine-contracted rat aortic rings (Example VI)
T2 construct: from tissue; host or cells: isolated rat aortic rings (2-3 mm)
T2 sequence (Q62600 2-1202 limits assumed): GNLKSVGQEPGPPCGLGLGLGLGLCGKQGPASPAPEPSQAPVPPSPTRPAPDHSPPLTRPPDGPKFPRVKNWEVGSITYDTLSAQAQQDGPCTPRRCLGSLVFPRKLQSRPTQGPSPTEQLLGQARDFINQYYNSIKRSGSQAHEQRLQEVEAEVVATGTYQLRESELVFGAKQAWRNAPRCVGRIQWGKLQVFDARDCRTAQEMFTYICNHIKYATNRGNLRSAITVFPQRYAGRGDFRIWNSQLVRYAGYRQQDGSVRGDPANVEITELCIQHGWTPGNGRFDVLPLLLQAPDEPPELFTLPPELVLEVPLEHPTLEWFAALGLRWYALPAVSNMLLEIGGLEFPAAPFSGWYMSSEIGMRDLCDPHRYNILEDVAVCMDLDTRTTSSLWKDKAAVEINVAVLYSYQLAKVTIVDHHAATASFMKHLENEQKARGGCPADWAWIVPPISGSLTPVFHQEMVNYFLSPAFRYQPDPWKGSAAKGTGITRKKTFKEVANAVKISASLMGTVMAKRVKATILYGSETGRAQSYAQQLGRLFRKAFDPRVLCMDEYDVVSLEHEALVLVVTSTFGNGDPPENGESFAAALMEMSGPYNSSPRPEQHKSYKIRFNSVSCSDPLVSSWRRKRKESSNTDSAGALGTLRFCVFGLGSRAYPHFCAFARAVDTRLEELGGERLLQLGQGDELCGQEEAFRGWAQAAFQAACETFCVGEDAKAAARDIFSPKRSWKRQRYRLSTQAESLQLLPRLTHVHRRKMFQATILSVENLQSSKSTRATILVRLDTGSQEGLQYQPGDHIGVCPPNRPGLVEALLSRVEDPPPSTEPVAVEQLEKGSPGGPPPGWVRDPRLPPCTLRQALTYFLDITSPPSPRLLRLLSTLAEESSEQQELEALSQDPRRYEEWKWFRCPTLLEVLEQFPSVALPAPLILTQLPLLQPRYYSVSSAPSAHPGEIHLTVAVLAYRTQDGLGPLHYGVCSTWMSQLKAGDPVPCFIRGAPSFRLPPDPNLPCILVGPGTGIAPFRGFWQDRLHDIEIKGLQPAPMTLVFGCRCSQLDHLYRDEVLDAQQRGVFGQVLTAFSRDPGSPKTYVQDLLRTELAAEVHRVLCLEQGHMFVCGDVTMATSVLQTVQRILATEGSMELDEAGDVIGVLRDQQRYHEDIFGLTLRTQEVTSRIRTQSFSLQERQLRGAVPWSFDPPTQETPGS
Protocol: In vitro studies with rat aortic rings were carried out to test the effect of N^6 -(hydrazinoiminomethyl)-L-lysine relative to other known inhibitors of the constitutive isoform of nitric oxide synthase. Aortic rings (2-3 mm) were isolated, suspended under a resting tension of 2.00 gm in 5 ml glass chambers containing Krebs-Henseleit solution gassed with 95% 02 and 5% CO2 at 37° C. as described previously for vascular rings from guinea pigs (O.A. Fasehun et al, (1990) J. Pharmacol. Exp. Ther. 255, 1348-1353). The aortic rings were then contracted by addition of 0.03 μM phenylephrine to the bathing solution, and the tension of the rings was measured. Acetylcholine, an agonist that stimulates the formation of nitric oxide by constitutive nitric oxide synthase in the vascular endothelium, was next added to a final concentration of 1 μM. The nitric oxide formed in response to acetylcholine causes the vascular smooth muscle of the aortic rings to relax, and the decrease in tension is measured. Inhibitors of nitric oxide synthase decrease the extent to which acetylcholine causes relaxation of the phenylephrine-contracted aortic rings. In the study, rings were contracted with phenylephrine, relaxed with acetylcholine, and then increasing doses of inhibitor were added to the bathing solution to overcome the effect of acetylcholine. The dose of inhibitor is denoted on the X-axis.

[4] = set-up: species or system Swiss-Webster mice; conditions: mouse, in vivo, sc
Protocol: To test the long-term toxicity of N^6 -(hydrazinoiminomethyl)-L-lysine,0.209 ml of a 200 mM solution of the hydrochloride salt of the drug (48 mg/ml) was loaded into each of three Alzet Osmotic Pumps (Model 2001), and the pumps were implanted subcutaneously on the backs of three individual Swiss-Webster mice (wts. 30.7, 34.8 and 33.4 gms) under pentobarbital anesthesia. Each pump delivered the solution of drug at a rate of […] for 1 week.

[5] = tested on: inducible isoform of nitric oxide synthase; conditions: cited from earlier work
[6] = rat aortic rings, 0.03 μM phenylephrine, 1 μM acetylcholine, read-out: concentration needed to overcome 50% of the relaxation caused by acetylcholine (ED50)
[7] = ratio of ED 50% approx., inducible isoform

With NN=C(N)NCCCCC(N)C(=O)O (racemic) [N^6 -(hydrazinoiminomethyl)-D,L-lysine, N^6 -(Hydrazinoiminomethyl)-D,L-lysine] the “blood pressure increase compared with L-form” value (nitric oxide synthase; as Example IV, twice the dosage of the L-form) was “substantially equal results” and the “inhibition of nitrite formation by induced endothelial cells compared with L-form” value ([1]; as Example V, twice the concentration of the L-form) was “substantially equal results”.
In the case of NN=C(N)NCCCC[C@H](N)C(=O)O [HAA, N^6 -(hydrazinoiminomethyl)-L-lysine], the “increase of blood pressure” value (nitric oxide synthase; endotoxin 2 mg/kg dog, mean arterial pressure about 70 mm Hg, 20 mg/kg i.v. bolus, within a few minutes) was “about 30 mm Hg”, the “time blood pressure remained in physiologically acceptable range” value (nitric oxide synthase; endotoxin dog, after 20 mg/kg i.v. bolus) was “about 45 min” and the “late signs of toxicity” value ([2]; dog, in vivo) was “periodic isolated myoclonic muscle spasms”. The “time until muscle spasms ended” value ([2]; dog, in vivo) was no more than 24 h, the signs of toxicity ([2]; dog, in vivo, iv, 20 mg/kg) was “no signs of toxicity” and the pIC50 [3, 6] was roughly 4.99. For the same molecule, the survival [4] was greater than 4 weeks, the pIC50 ([1]; mouse brain endothelial cells, 18 hrs with gamma-interferon 1000 units/ml and tumor necrosis factor 5000 units/ml, read-out: dose required for approximately 50% inhibition (ED 50% approx.) of nitrite formation) was roughly 4.81 and the “potency relative to NAA” value [1, 7] was “approximately 4 times”. For the same molecule, the “potency relative to NMMA” value [1, 7] was “approximately 8 times”.
With N=C(N)NCCC[C@H](N)C(=O)O [L-ARG, L-arginine, reference compound] the “blood pressure after reversal by substrate” value (nitric oxide synthase; endotoxin dog treated with HAA, then 400 mg/kg i.v. bolus) was “dropped precipitously to a level characteristic of septic (endotoxic) shock”.
With N/N=C(\N)NCCC[C@H](N)C(=O)O [NAA, N^G -amino-L-arginine, reference compound] the “toxicity at the same dose under similar circumstances” value ([2]; awake dog, same dose as N6-(hydrazinoiminomethyl)-L-lysine) was “major seizures”, the pIC50 [3] was roughly 5.38 and the pIC50 [1] was roughly 4.20.
Work on CNC(=N)NCCC[C@H](N)C(=O)O [NMMA, N^G -methyl-L-arginine] yielded a pIC50 [3, 6] of roughly 4.99.
In the case of N=C(NCCC[C@H](N)C(=O)O)N[N+](=O)[O-] [NNA, N^G -nitro-L-arginine], the pIC50 [3, 6] is listed as roughly 5.82 and the “rank as inhibitor of the inducible isoform among NNA, NAA, NMMA, HAA” value [5] is listed as “least effective inhibitor of the inducible isoform”.
